The values below are quoted from earlier work in US20080139514A1, “DIPHOSPHONIC ACID PHARMACEUTICAL COMPOSITIONS” (priority 2006, published 2008).

The conditions of data set [1]: stored at room temperature.

Structures are written as SMILES. Read-outs that look alike come from different tables or passages of the source.

With `CCCCCN(C)CCC(O)(P(=O)(O)O)P(=O)(O)O` [Ibandronic acid, 3-(N-methyl-N-pentyl) amino-1-hydroxypropane-1,1-diphosphonic acid], the Solubility in water result is given as “freely soluble”. In addition, the “Solubility in organic solvents” value (organic solvents) is reported as “practically insoluble”.
With `CCCCCN(C)CCC(O)(P(=O)(O)O)P(=O)(O)O` [ibandronate sodium, ibandronate monosodium monohydrate], the Solubility in water entry (monosodium monohydrate) is on record as “poor”. Further, in data set [1], the Stability on storage result is “quite stable”.
